Measured values: patent US10385107B2 (INDIANA UNIVERSITY RESEARCH AND TECHNOLOGY CORPORATION, priority 2014, dated 2019)
“Also recorded” adds a separate entry of the source.

Legend:
blood glucose [1] = test: Insulin tolerance test in C57/Blk mice (MIU-30); assay type: in vivo; settings: C57 black mice, through 8 hr
Description: (generating “MIU-30c”). […] In FIG. 1B total blood glucose of MIU 30a and MIU 30c as compared to vehicle is reported as differential area under curve (AUC). […] These in vivo results are consistent with the in vitro analysis.

insulin receptor [2] = molecular target: T1, insulin receptor (Homo sapiens, UniProt P06213); test: Insulin receptor phosphorylation assay, receptor transfected HEK293 cells; assay type: cell-based; parameters: expressed in transfected cells; host or cells: HEK293; settings: incubated in 20% plasma
T1 sequence (P06213 28-758 limits assumed): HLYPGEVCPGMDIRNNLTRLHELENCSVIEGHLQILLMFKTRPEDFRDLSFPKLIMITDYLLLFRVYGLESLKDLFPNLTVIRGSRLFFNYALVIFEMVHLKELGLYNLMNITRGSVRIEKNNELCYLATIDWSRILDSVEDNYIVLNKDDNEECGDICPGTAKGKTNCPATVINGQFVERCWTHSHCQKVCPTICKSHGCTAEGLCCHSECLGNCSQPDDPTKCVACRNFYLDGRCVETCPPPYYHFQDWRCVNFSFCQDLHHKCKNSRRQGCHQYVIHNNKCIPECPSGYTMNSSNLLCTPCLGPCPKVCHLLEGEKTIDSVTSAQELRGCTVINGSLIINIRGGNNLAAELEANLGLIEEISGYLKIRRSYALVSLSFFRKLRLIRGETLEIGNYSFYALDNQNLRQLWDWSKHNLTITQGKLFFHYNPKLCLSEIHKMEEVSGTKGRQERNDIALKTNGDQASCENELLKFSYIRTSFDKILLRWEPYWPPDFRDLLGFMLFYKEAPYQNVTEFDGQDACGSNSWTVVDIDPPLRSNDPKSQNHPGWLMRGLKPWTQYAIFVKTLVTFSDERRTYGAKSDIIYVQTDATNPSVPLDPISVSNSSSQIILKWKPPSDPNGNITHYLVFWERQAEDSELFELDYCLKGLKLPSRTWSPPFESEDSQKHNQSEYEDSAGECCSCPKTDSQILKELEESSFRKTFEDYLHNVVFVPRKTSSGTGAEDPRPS
T1 sequence (P06213 763-1382 partner limits assumed): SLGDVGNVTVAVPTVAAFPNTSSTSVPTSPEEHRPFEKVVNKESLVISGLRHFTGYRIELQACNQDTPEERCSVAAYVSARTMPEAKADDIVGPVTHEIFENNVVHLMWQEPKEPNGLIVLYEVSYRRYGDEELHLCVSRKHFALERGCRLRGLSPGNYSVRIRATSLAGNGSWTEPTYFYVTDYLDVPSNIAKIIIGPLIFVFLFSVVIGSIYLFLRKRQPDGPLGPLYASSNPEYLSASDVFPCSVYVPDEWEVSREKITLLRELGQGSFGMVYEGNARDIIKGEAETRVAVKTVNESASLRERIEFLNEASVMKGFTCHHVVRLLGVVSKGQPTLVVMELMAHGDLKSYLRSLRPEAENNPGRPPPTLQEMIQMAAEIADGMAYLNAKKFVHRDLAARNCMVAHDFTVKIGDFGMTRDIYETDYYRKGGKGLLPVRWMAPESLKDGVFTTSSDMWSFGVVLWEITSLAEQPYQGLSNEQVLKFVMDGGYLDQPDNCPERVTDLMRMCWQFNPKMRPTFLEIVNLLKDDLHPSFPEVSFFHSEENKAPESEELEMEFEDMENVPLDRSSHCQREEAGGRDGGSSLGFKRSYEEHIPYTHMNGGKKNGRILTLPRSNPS

insulin receptor [3] = molecular target: T1, insulin receptor; test: Insulin receptor competition binding assay (scintillation proximity); parameters: expressed in transfected cells; plasma membrane fragments; settings: incubated in 20% plasma/PBS at 37° C.
[4] = Stability of Phe^B1-Insulin Prodrug
blood glucose [5] = test: Comparative insulin tolerance for insulin prodrug analogs in mice; assay type: in vivo; settings: for comparative insulin potency in vivo: mice, administered without pre-incubation
Description: The prodrug derivative MIU-29: [B^1(Y16,L17,Y25)29a: A^1(aF19-dLys(Ac),NLeu)] comprises a 4-amino-phenylalnine substitution at position A19 wherein a dipeptide dLys(Ac),NLeu have been covalently linked at the 4-amino position of the A19 residue. […]
(§1) Acylation of the insulin prodrug analogs was investigated to determine if retention times in vivo could be enhanced. […] (providing time for prodrug conversion) relative to the non-acylated prodrug (see FIG. 2).

[6] = In vitro activity of prodrugs relative to time incubated ex vivo; settings: 30% ACN/PBS, pH 7.4, 37° C.
Experimental: FIG. 2 is a graph depicting the in vitro activity of the acylated prodrug MIU 42: B^1(Y16,L17,Y25)29a: A^1(dLys(rE-C14),Sar-aF19) (wherein an amino acid of the dipeptide prodrug element is acylated, linked at the gamma position “rE” of a glutamic acid linker) relative to time incubated ex vivo in 30% ACN/PBS at pH 7.4 and 37° C.
as §1

B^1(Y16,L17,Y25)29a: A^1(dLys(Ac),Sar-aF19) [MIU30]
blood glucose AUC vs vehicle (glucose lowering) (blood glucose [1]; 90 nmol/kg): little change in glucose | blood glucose AUC vs vehicle (glucose lowering) (blood glucose [1]; 270 nmol/kg): glucose lowering | % Activity of Insulin (phosphorylation) (insulin receptor [2]; 1 hr): 23.0% | % Activity of Insulin (phosphorylation) (insulin receptor [2]; 3 hr): 26.8% | % Activity of Insulin (phosphorylation) (insulin receptor [2]; 6 hr): 32.5% | % Activity of Insulin (phosphorylation) (insulin receptor [2]; 9 hr): 41.1% | % Activity of Insulin (phosphorylation) (insulin receptor [2]; […]): 43.2% | % Activity of Insulin (binding) (insulin receptor [3]; 0 hr): 34.44% | % Activity of Insulin (binding) (insulin receptor [3]; 9 hr): 100.09% | % Activity of Insulin (binding) (insulin receptor [3]; 95 hr): 115.42%

Methyl dLys(C18) [Peptide 8]
Cleavage time [4]: > 240 h

[B^1(H5,10 Y16,L17,Y25, K29-C14)28a: A^1(N18,21, aF19NH2)] [MIU-46]
comparative insulin potency in vivo (blood glucose [5]): did not exhibit a desired in vivo potency or a basal profile

[B^1(Y16,L17,Y25)29a: A^1(aF19-dLys(Ac),NLeu)] [MIU-29]
ability to lower blood glucose compared to parent compound (blood glucose [5]; normal mice, prodrug incubated 24 hours ex vivo before administration): performed almost identically

[B^1(Y16,L17,Y25)29a: A^1(dLys(rE-C14),Sar-aF19)] [MIU 42]
comparative insulin potency in vivo (blood glucose [5]): not very potent relative to the non-prodrug parent compound | in vitro activity relative to time incubated ex vivo [6]: increases with time incubated ex vivo; also recorded: activity is restored

isobutyl dLys(C18) [Peptide 10]
Cleavage time [4]: ~150 h
